Here are results for 25 compounds from patent publication US9409866B2, “Pyridine-2-amides useful as CB2 agonists” (Hoffmann-La Roche Inc., priority 2012, dated 2016).

Like-named read-outs stand apart in the source and are kept apart here.

For one assay, the target named is human CB1 receptors (Homo sapiens (Human), UniProt P21554). The assay can be described thus: functional cAMP assay, CHO cells expressing human CB1. The class given is cell-based. Put shortly: (§1)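 Agonist EC50 values came from cAMP levels in CHO cells carrying human CB1 or CB2, after 30 min of compound treatment at 30 °C in the presence of 1 mM IBMX. Detection used a time-resolved FRET cAMP kit read against a cAMP standard curve.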

Another assay addresses human CB2 receptors (Homo sapiens (Human), UniProt P34972). As to the kind of experiment: functional cAMP assay, CHO cells expressing human CB2. The class given is cell-based. Put shortly:
as §1

Setting [1] is: read-out: Human CB1 EC50; functional cAMP assay, CHO cells expressing human CB1.
Setting [2] is: functional cAMP assay, CHO cells expressing human CB1; read-out: Human CB1 EC50.
The mark [3] stands for this setting: Human CB1 EC50 (uM), functional cAMP assay, CHO cells expressing human CB1.

Sequence of human CB1 receptors (P21554 whole entry): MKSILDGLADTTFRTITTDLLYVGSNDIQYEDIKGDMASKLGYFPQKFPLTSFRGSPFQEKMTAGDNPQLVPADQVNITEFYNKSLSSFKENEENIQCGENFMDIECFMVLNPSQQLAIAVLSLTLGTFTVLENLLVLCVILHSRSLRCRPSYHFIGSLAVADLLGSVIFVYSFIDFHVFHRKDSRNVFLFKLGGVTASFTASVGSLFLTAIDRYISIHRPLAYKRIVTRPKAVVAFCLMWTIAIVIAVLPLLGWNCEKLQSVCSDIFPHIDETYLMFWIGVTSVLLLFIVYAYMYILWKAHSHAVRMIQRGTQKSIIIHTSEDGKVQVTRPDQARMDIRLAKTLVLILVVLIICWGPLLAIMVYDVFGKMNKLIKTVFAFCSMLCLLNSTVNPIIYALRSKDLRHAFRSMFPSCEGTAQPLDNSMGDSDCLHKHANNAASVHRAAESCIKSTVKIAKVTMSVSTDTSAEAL
Sequence of human CB2 receptors (P34972 whole entry): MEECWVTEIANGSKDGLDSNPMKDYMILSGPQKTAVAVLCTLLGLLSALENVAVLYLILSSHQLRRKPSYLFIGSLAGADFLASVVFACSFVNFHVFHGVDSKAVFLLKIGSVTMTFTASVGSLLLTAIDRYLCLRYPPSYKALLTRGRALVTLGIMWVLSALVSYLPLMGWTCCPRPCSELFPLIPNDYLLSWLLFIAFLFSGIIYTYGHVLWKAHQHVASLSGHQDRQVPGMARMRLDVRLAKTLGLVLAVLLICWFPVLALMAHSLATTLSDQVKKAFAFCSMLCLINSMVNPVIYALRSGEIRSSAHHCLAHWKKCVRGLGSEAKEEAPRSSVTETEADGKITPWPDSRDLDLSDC

With `Cc1nc(C(C)(CS(C)(=O)=O)NC(=O)c2cc(OC(C)CF)c(C3CC3)cn2)no1` (single isomer, unassigned) [Example 297, 5-cyclopropyl-4-(1-fluoropropan-2-yloxy)-N-(2-(5-methyl-1,2,4-oxadiazol-3-yl)-1-(methylsulfonyl)propan-2-yl)picolinamide], the EC50 on human CB1 receptors (setting [1]) was greater than 10 µM; at human CB2 receptors (read-out: Human CB2 EC50), 0.0032 µM.

For `Cc1nnc(C(C)(CC2CC2)NC(=O)c2cc(O[C@@H](C)C(F)(F)F)c(C3(F)COC3)cn2)o1` (stereo partly drawn) [Example 176, N-[1-cyclopropyl-2-(5-methyl-1,3,4-oxadiazol-2-yl)propan-2-yl]-5-(3-fluorooxetan-3-yl)-4-[(2S)-1,1,1-trifluoropropan-2-yl]oxypyridine-2-carboxamide], the EC50 at human CB1 receptors (setting [2]) was greater than 10 µM; on human CB2 receptors (read-out: Human CB2 EC50), 0.443 µM.

On to `CC(CC(N)=O)(NC(=O)c1cc(OCCF)c(C2CC2)cn1)C1CC1` (single isomer, unassigned) [Example 270, N-[4-amino-2-cyclopropyl-4-oxobutan-2-yl]-5-cyclopropyl-4-(2-fluoroethoxy)pyridine-2-carboxamide], for which the EC50 on human CB1 receptors (setting [3]) was greater than 10 µM; on human CB2 receptors (Human CB2 EC50 (uM)) it was 0.0689 µM.

Regarding `CC(CS(C)(=O)=O)(NC(=O)c1cc(OCC(F)(F)F)c(C2CC2)cn1)C(N)=O` (centres unmarked) [Example 134, N-(1-amino-2-methyl-3-methylsulfonyl-1-oxopropan-2-yl)-5-cyclopropyl-4-(2,2,2-trifluoroethoxy)pyridine-2-carboxamide], the EC50 at human CB1 receptors (setting [2]) was greater than 10 µM; on human CB2 receptors (read-out: Human CB2 EC50) it was 0.888 µM.

With `Cc1nc(C(C)(CC2CC2)NC(=O)c2cc(OCC(F)(F)F)c(C3(F)COC3)cn2)no1` (centres unmarked) [Example 131, N-[1-cyclopropyl-2-(5-methyl-1,2,4-oxadiazol-3-yl)propan-2-yl]-5-(3-fluorooxetan-3-yl)-4-(2,2,2-trifluoroethoxy)pyridine-2-carboxamide], the EC50 on human CB1 receptors (setting [2]) is greater than 10 µM; at human CB2 receptors (read-out: Human CB2 EC50) it was 0.0263 µM.

With `Cc1nc(C(C)(NC(=O)c2cc(OCC(F)(F)F)c(C3(F)CCC3)cn2)C2CC2)no1` (single isomer, unassigned) [Example 306, N-(1-cyclopropyl-1-(5-methyl-1,2,4-oxadiazol-3-yl)ethyl)-5-(1-fluorocyclobutyl)-4-(2,2,2-trifluoroethoxy)picolinamide], the results for the EC50 on human CB1 receptors (setting [3]) and at human CB2 receptors (Human CB2 EC50 (uM)) were greater than 10 µM and 0.0118 µM, respectively.

As for `C[C@H](Oc1cc(C(=O)NC(c2noc(N)n2)C(C)(C)C)ncc1C1CC1)C(F)(F)F` (stereo partly drawn) [Example 219, N-[1-(5-amino-1,2,4-oxadiazol-3-yl)-2,2-dimethylpropyl]-5-cyclopropyl-4-[(2S)-1,1,1-trifluoropropan-2-yl]oxypyridine-2-carboxamide], the concentration giving a half-maximal response (EC50) is greater than 10 µM on human CB1 receptors (setting [2]) and 0.001 µM on human CB2 receptors (read-out: Human CB2 EC50).

Consider `Cc1nc([C@@](C)(NC(=O)c2cc(OCC(F)(F)F)c(C3CC3)cn2)C2CC2)no1` (single isomer, unassigned; enantiomer a) [Example 61, 5-Cyclopropyl-4-(2,2,2-trifluoro-ethoxy)-pyridine-2-carboxylic acid [1-cyclopropyl-1-(5-methyl-[1,2,4]oxadiazol-3-yl)-ethyl]-amide (enantiomer A)], for which the values for the EC50 at human CB1 receptors (setting [3]) and on human CB2 receptors (Human CB2 EC50 (uM)) were greater than 10 µM and 0.0276 µM, respectively.

Consider `Cc1nc(C(C)(CC2CC2)NC(=O)c2cc(O[C@@H](C)C(F)(F)F)c(C3(F)COC3)cn2)no1` (stereo partly drawn) [Example 171, N-[1-cyclopropyl-2-(5-methyl-1,2,4-oxadiazol-3-yl)propan-2-yl]-5-(3-fluorooxetan-3-yl)-4-[(2S)-1,1,1-trifluoropropan-2-yl]oxypyridine-2-carboxamide], for which the EC50 is greater than 10 µM on human CB1 receptors (setting [2]) and 0.0149 µM on human CB2 receptors (read-out: Human CB2 EC50).

`Cc1nc(C(C)(CO)NC(=O)c2cc(OCC(F)(F)F)c(C3CC3)cn2)no1` (single isomer, unassigned) [Example 141, 5-cyclopropyl-N-[1-hydroxy-2-(5-methyl-1,2,4-oxadiazol-3-yl)propan-2-yl]-4-(2,2,2-trifluoroethoxy)pyridine-2-carboxamide]: the results for the EC50 at human CB1 receptors (setting [1]) and on human CB2 receptors (Human CB2 EC50 (uM)) were greater than 10 µM and 0.0968 µM, respectively.

In the case of `Cc1nc(C(C)(NC(=O)c2cc(O[C@@H](C)C(F)(F)F)c(N3CC(F)(F)C3)cn2)C2CC2)no1` (stereo partly drawn) [Example 96, 5-(3,3-Difluoro-azetidin-1-yl)-4-((S)-2,2,2-trifluoro-1-methyl-ethoxy)-pyridine-2-carboxylic acid [1-cyclopropyl-1-(5-methyl-[1,2,4]oxadiazol-3-yl)-ethyl]-amide], the EC50 came out at 0.11 µM on human CB1 receptors (setting [2]) and 0.0014 µM on human CB2 receptors (read-out: Human CB2 EC50).

In the case of `Cc1nc(C(C)(NC(=O)c2cc(OCC(F)(F)F)c(C3CC3)cn2)C(=O)N2CC(F)(F)C2)no1` (centres unmarked) [Example 147, 5-cyclopropyl-N-[1-(3,3-difluoroazetidin-1-yl)-2-(5-methyl-1,2,4-oxadiazol-3-yl)-1-oxopropan-2-yl]-4-(2,2,2-trifluoroethoxy)pyridine-2-carboxamide], the EC50 on human CB1 receptors (setting [2]) is greater than 10 µM; at human CB2 receptors (read-out: Human CB2 EC50) it was 0.0454 µM.

For `NC(=O)CC1(NC(=O)c2cc(OCC(F)F)c(C3(F)CCC3)cn2)CS(=O)(=O)C1` [Example 308, N-[3-(2-amino-2-oxoethyl)-1,1-dioxothietan-3-yl]-4-(2,2-difluoroethoxy)-5-(1-fluorocyclobutyl)pyridine-2-carboxamide], the figures for the EC50 on human CB1 receptors (setting [2]) and at human CB2 receptors (read-out: Human CB2 EC50) were greater than 10 µM and 0.073 µM, respectively.

For `CC(C)[C@](C)(CO)NC(=O)c1cc(Cc2ccc(F)cc2)c(Cl)cn1` [Example 15, 5-Chloro-4-(4-fluoro-benzyl)-pyridine-2-carboxylic acid ((R)-1-hydroxymethyl-1,2-dimethyl-propyl)-amide], the EC50 is greater than 10 µM on human CB1 receptors (setting [2]) and 0.0058 µM at human CB2 receptors (read-out: Human CB2 EC50).

As to `Cc1nc(C(NC(=O)c2cc(OCC(F)(F)F)c(C3CC3)cn2)C(C)(C)C)no1` (single isomer, unassigned) [Example 212, 5-cyclopropyl-N-[2,2-dimethyl-1-(5-methyl-1,2,4-oxadiazol-3-yl)propyl]-4-(2,2,2-trifluoroethoxy)pyridine-2-carboxamide], the EC50 on human CB1 receptors (setting [1]) was greater than 10 µM; on human CB2 receptors (Human CB2 EC50 (uM)), 0.005 µM.

For the compound `Cc1nc(C(C)(CC2CC2)NC(=O)c2cc(OCC(F)(F)F)c(N3CC(F)(F)C3)cn2)no1` (centres unmarked) [Example 90, 5-(3,3-Difluoro-azetidin-1-yl)-4-(2,2,2-trifluoro-ethoxy)-pyridine-2-carboxylic acid [2-cyclopropyl-1-methyl-1-(5-methyl-[1,2,4]oxadiazol-3-yl)-ethyl]-amide], the values for the EC50 on human CB1 receptors (setting [2]) and at human CB2 receptors (read-out: Human CB2 EC50) were greater than 10 µM and 0.0177 µM, respectively.

`Cc1nc(C(C)(CC(C)(C)C)NC(=O)c2cc(OCC(F)(F)F)c(Cl)cn2)no1` (centres unmarked) [Example 83, 5-Chloro-4-(2,2,2-trifluoro-ethoxy)-pyridine-2-carboxylic acid [1,3,3-trimethyl-1-(5-methyl-[1,2,4]oxadiazol-3-yl)-butyl]-amide]: the EC50 is greater than 10 µM at human CB1 receptors (setting [2]) and 0.025 µM on human CB2 receptors (read-out: Human CB2 EC50).

In the case of `C[C@H](Oc1cc(C(=O)NC(C(N)=O)C(C)(C)C)ncc1C1CC1)C(F)(F)F` (stereo partly drawn) [Example 199, N-(1-amino-3,3-dimethyl-1-oxobutan-2-yl)-5-cyclopropyl-4-[(2S)-1,1,1-trifluoropropan-2-yl]oxypyridine-2-carboxamide], the EC50 is greater than 10 µM at human CB1 receptors (setting [2]) and 0.0078 µM on human CB2 receptors (read-out: Human CB2 EC50).

For the compound `Cn1nnnc1C(NC(=O)c1cc(OCC(F)(F)F)c(C2CC2)cn1)C(C)(C)C` (single isomer, unassigned) [Example 206, 5-cyclopropyl-N-[2,2-dimethyl-1-(1-methyltetrazol-5-yl)propyl]-4-(2,2,2-trifluoroethoxy)pyridine-2-carboxamide], the results for the EC50 at human CB1 receptors (setting [1]) and on human CB2 receptors (Human CB2 EC50 (uM)) were greater than 10 µM and 0.0393 µM, respectively.

In the case of `CC(CC1CC1)(NC(=O)c1cc(OCC(F)(F)F)c(C2CC2)cn1)C(N)=O` (centres unmarked) [Example 186, N-(1-amino-3-cyclopropyl-2-methyl-1-oxopropan-2-yl)-5-cyclopropyl-4-(2,2,2-trifluoroethoxy)pyridine-2-carboxamide], the EC50 on human CB1 receptors (setting [2]) is greater than 10 µM; on human CB2 receptors (read-out: Human CB2 EC50) it was 0.343 µM.

`CC(CF)Oc1cc(C(=O)NC(C)(CC(N)=O)C2CC2)ncc1C1CC1` (single isomer, unassigned) [Example 301, N-(4-amino-2-cyclopropyl-4-oxobutan-2-yl)-5-cyclopropyl-4-(1-fluoropropan-2-yloxy)picolinamide]: the EC50 is greater than 10 µM on human CB1 receptors (setting [3]) and 0.0304 µM on human CB2 receptors (Human CB2 EC50 (uM)).

Turning to `Cc1nc(C(C)(NC(=O)c2cc(O[C@@H](C)C(F)(F)F)c(C3CC3)cn2)C2CC2)no1` (single isomer, unassigned; epimer a) [Example 68], the EC50 on human CB1 receptors (setting [2]) is greater than 10 µM; on human CB2 receptors (read-out: Human CB2 EC50), 0.00395 µM.

As for `CC(CC(N)=O)(NC(=O)c1cc(OCC(F)(F)F)c(C2(F)CCC2)cn1)C1CC1` (centres unmarked) [Example 300, N-(4-amino-2-cyclopropyl-4-oxobutan-2-yl)-5-(1-fluorocyclobutyl)-4-(2,2,2-trifluoroethoxy)picolinamide], the figures for the EC50 at human CB1 receptors (setting [2]) and at human CB2 receptors (read-out: Human CB2 EC50) were greater than 10 µM and 0.0067 µM, respectively.

Take `Cc1nc(C(NC(=O)c2cc(O[C@@H](C)C(F)(F)F)c(C3CC3)cn2)C(C)(C)C)no1` (stereo partly drawn) [Example 214, 5-cyclopropyl-N-[2,2-dimethyl-1-(5-methyl-1,2,4-oxadiazol-3-yl)propyl]-4-[(2S)-1,1,1-trifluoropropan-2-yl]oxypyridine-2-carboxamide]: the EC50 at human CB1 receptors (setting [2]) is greater than 10 µM; at human CB2 receptors (read-out: Human CB2 EC50) it was 0.008 µM.

Turning to `Cc1nc([C@](C)(CS(C)(=O)=O)NC(=O)c2cc(OCC(F)(F)F)c(C3CC3)cn2)no1` (single isomer, unassigned) [Example 99, 5-Cyclopropyl-4-(2,2,2-trifluoro-ethoxy)-pyridine-2-carboxylic acid [2-methanesulfonyl-1-methyl-1-(5-methyl-[1,2,4]oxadiazol-3-yl)-ethyl]-amide], the EC50 on human CB1 receptors (setting [3]) was greater than 10 µM; at human CB2 receptors (Human CB2 EC50 (uM)), 0.104 µM.
